Test system: E. coli, P. aeruginosa, S. aureus, C. albicans, A. brasiliensis
Test: Evaluation against category IA standard, Preservatives-Effectiveness Tests, Japanese Pharmacopoeia 16th edition (all 5 strains)
Assay type: cell-based
Details: summary of Tables 1 to 3, against each of the strains
Experimental: The following strains were used as inoculum strains.
A test sample of each formulation was inoculated with an inoculum microorganism liquid so that the concentration of the microorganism liquid in the test sample was 10^5 to 10^6 cells/mL (for each of the 5 strains). Specifically, an inoculum microorganism liquid was prepared for each strain at 10^7 to 10^8 cfu/mL, and inoculated into a test sample of each of Examples 1 to 11 and Comparative Example 1, and uniformly mixed to obtain a sample, so that the inoculum microorganism liquid was at 10^5 to 10^6 cfu/mL. These samples were stored at 20 to 25° C. under a light shielding condition. At sampling points (after 14 days or 28 days), 1 mL of each sample was withdrawn with a micropipette to measure a viable cell count. […]
The test results in Tables 1 to 3 are each shown as the common logarithm value of the ratio (B/A) of a cell count (B) at the time of inoculation to a cell count (A) of viable cells. For example, the value “1” means that the measured viable cell count is as low as 10% of the inoculum cell count. Further, the formulations were evaluated whether they satisfied the standard of “category IA” according to the informative “Preservatives-Effectiveness Tests” defined in The Japanese Pharmacopoeia, 16th edition.

For `CNC[C@H](O)[C@@H](O)[C@H](O)[C@H](O)CO` [meglumine, Meglumine], the “Antiseptic effect (in words)” value was “alone has an antiseptic effect”.
